# Reference: ChEMBL document CHEMBL1146440, “Brasilidine A, a new cytotoxic isonitrile-containing indole alkaloid from the actinomycete Nocardia brasiliensis” (J Nat Prod, 1997)
# Assays:
# [1] = test system: CHO; test: Cytotoxicity against MDR1 gene transfected CHO cells; format: ADME, cell-based, Cavia porcellus; conditions: Cricetulus griseus
# [2] = test system: P388; test: Cytotoxicity against mouse P388 cells; format: functional, cell-based
# [3] = test system: L1210; test: Cytotoxicity against mouse L1210 cells; format: functional, cell-based
# [4] = test system: P388; test: Cytotoxicity against mouse Adriamycin-resistant P388 cells; format: functional, cell-based
# [5] = test system: CHO; test: Cytotoxicity against CHO cells; format: cell-based, Cavia porcellus; conditions: Cricetulus griseus
smiles,measurement,setting,value
COc1cccc2c1C(=O)c1c(O)c3c(c(O)c1C2=O)C[C@@](O)(C(=O)CO)C[C@@H]3O[C@H]1C[C@H](N)[C@H](O)[C@H](C)O1 [DOXORUBICIN],IC50,[1],0.11 µg/mL
same,IC50,[2],0.09 µg/mL
same,IC50,[3],0.09 µg/mL
same,IC50,[4],0.55 µg/mL
same,IC50,[5],0.01 µg/mL
